Experimental findings from ChEMBL document CHEMBL1240318, “Developing a new resource for drug discovery: marine actinomycete bacteria” (2006) are described below.

Values after ≈ are worked out from the molar mass of the structure shown.

Common to all, as to format: functional
The subject of one experiment is Staphylococcus aureus. The experiment can be described thus: Antimicrobial activity against methicillin-resistant Staphylococcus aureus assessed as growth inhibition.
In the next experiment the test system is SK-MEL-5. The experiment can be described thus: Antitumor activity against human SK-MEL-5 cells. As to conditions: read-out: LC50 (the source's name).
The next experiment relates to Enterococcus faecium. Kind of experiment: Antimicrobial activity against vancomycin-resistant Enterococcus faecium assessed as growth inhibition.
The subject of a further experiment is Candida albicans. Kind of experiment: Antimicrobial activity against amphotericin-resistant Candida albicans.

For the molecule `C\C1=C/C=C/C=C/C=C/c2cccc(O)c2C(=O)O[C@@H](C[C@@H](C)O)C[C@@H](O)C/C=C/[C@@H](O)C[C@@H](O)CC(C)/C=C/C=C/C=C/C=C/c2cccc(O)c2C(=O)O[C@@H](C[C@@H](C)O)C[C@@H](O)C/C=C/[C@@H](O)C[C@@H](O)C1` (some centres undefined) [MARINOMYCIN A], the MIC with Staphylococcus aureus and in the experiment on Enterococcus faecium was 0.1 µM (≈ 0.101 µg/mL) in each case. Further, in the experiment with SK-MEL-5, the CC50 came out at 5 nM. In addition, the MIC90 (usually an inhibitory concentration at the 90% level, which refers to growth in some studies and to a panel of isolates in others) against Candida albicans turned out to be 7.8 µM (≈ 7.89 µg/mL).
